Test results published in patent US20160002240A1, “NUCLEOSIDE ANALOG SALTS WITH IMPROVED SOLUBILITY AND METHODS OF FORMING SAME” (THE BOARD OF TRUSTEES OF THE UNIVERSITY OF ALABAMA, priority 2013, published 2016).
Values joined by “and” are separate entries in the source; they are usually repeats but may differ in a detail not shown here. Identical values can stand only once. Like-named read-outs stand apart in the source and are kept apart here. Marks after values point to notes of the source that are not given here.

What was measured:
[1] = Thermogravimetric analysis (thermal stability); format: physicochemical; conditions: for T5%onset: Table 4, onset temperature of initial 5 wt % mass loss, nitrogen, 5° C./min
Procedure: TGA experiments were performed on a Mettler Toledo TGA/DSC1 Star unit under a stream of nitrogen. Samples (5-20 mg) were placed on a platinum pan and were heated from 25° C. to 800° C. with a constant heating rate of 5° C./min and with a 30 min isotherm at 75° C. to remove any remaining volatiles. Decomposition temperatures (T5% onset) were reported as the onset temperature with respect to the initial 5 wt % mass loss.

[2] = Solubility in deionized water, UV absorbance at 254 nm with calibration curve
Procedure: The UV-VIS spectra used for development of calibration curves and for determination of the solubility values were performed on a Varian CARY 3 UV-Visible Spectrophotometer.
After filtering through Teflon syringe filters 0.2 μm), UV was used to determine the absorbance at 254 nm. A calibration curve of the compound in water was used to determine the concentration.
In a vial, 5.500 g [Cho][Acy] was mixed with 2 mL DI H2O.
(§1) A calibration curve of the compound in water was used to determine the concentration.
In a vial, 0.500 g [N1,1,1,16][Acy] was suspended in 1 mL DI H2O. The mixture was stirred for 24 h at room temperature. […] After filtering through a Teflon syringe filter (0.2 μm), 0.1 mL solution was diluted to 25 mL with DI H2O and its absorbance at 254 nm was determined.
as §1
In a vial, 4.8 g [P4,4,4,4][Acy] was suspended in 2 mL DI H2O. The mixture was stirred for 24 h at room temperature.
In a vial, 0.150 g [Acy]HCl was suspended in 1 mL DI H2O. The mixture was stirred for 24 h at room temperature. […] After filtering, 0.1 mL solution was diluted to 25 mL with DI H2O and its absorbance was determined.
In a vial, 0.2 g [Acy][Doc] was suspended in 1.5 mL DI H2O. […] To about 0.3 mL of this emulsion, water was added dropwise (mixing well each time after water was added) until a more clear mixture was obtained. […] The mixture was sonicated for about 30 min; this process (add water, sonication) was repeated until a clear solution was obtained. 0.5 mL of the clear solution obtained was diluted to 50 mL with DI H2O and UV was used to determine the absorbance at 254 nm.
as §1

[3] = cited from earlier work
[4] = Solubility in simulated biological fluids (PBS, SIF, SGF); conditions: for Solubility in PBS (pH = 7.4): phosphate buffer saline pH 7.4
Procedure: For all solvents used (water, Phosphate Buffer Solution (PBS), Simulated Gastric Fluid (SGF), Simulated Intestinal Fluid (SIF)) same amount of compound/solvent was used: 0.1 g compound/0.5 mL solvent. The solutions were stirred at room temperature for 24 h. The resulting suspensions were filtered through a 0.2 μm Teflon syringe filter to obtain clear solutions. […] Deuterated dmso (dmso-d6) containing 0.05% (v/v) TMS (as internal standard) was used to run the ^1H-NMR. 0.1 mL of the filtered solutions were combined with 0.4 mL dmso-d6 w/ 0.05% (v/v) TMS (corresponding to 1.836×10-6 mols TMS). The solubility values were determined from the molar ratio between the peaks corresponding to the compound and TMS.
Solubility experiments were conducted as described in example 12.

[5] = at 25° C.; cited from earlier work
[6] = quantitative NMR, room temperature, 24 h
[7] = simulated intestinal fluid pH 6.8 without pancreatin, quantitative NMR

Nc1nc2c(ncn2COCCO)c(=O)[nH]1 [[Cho][Acy] (1)] [choline acyclovir]
T5%onset [1]: 128 °C | Water solubility [2]: 1019.42 mg/mL | Water solubility mg/mL (g/L) [2]: 1019.42 mg/mL (g/L) | Water solubility mol/L [2]: 3.1045 (81) mol/L

CC(C)[C@H](N)C(=O)OCCOCn1cnc2c(=O)[nH]c(N)nc21 [valacyclovir]
Oral bioavailability [3]: about 55%

Nc1nc2c(ncn2COCCO)c(=O)[nH]1 [[N4,4,4,4][Acy] (5)] [tetrabutylammonium acyclovir]
T5%onset [1]: 132 °C | Solubility in PBS (pH = 7.4) [4, 6]: 1.0 mg ‘acyclovir’/mL | Solubility in SIF (pH = 6.8) [4, 7]: 144.0 mg ‘acyclovir’/mL

Nc1nc2c(ncn2COCCO)c(=O)[nH]1 [[N1,1,1,16][Acy] (3)] [trimethylhexadecylammonium acyclovir]
T5%onset [1]: 150 °C | Water solubility [2]: 252.18 mg/mL | Water solubility mg/mL (g/L) [2]: 252.18 mg/mL (g/L) | Water solubility mol/L [2]: 0.4957 (4) mol/L

Cl.Nc1nc2c(ncn2COCCO)c(=O)[nH]1 [[H2Acy]Cl (6), acyclovir hydrochloride]
T5%onset [1]: 156 °C | Solubility in SGF (pH = 1.2) ([4]; pH 1.2): 292.8 mg ‘acyclovir’/mL | Solubility in SIF (pH = 6.8) ([4]; pH 6.8): 167.0 mg ‘acyclovir’/mL

Nc1nc2c(ncn2COCCO)c(=O)[nH]1 [[H2Acy][Doc] (7)] [acyclovir docusate]
T5%onset [1]: 122 °C | Solubility in deionized water, average [2]: 8.46 mg/mL | Water solubility [2]: 8.48 mg/mL | Water solubility mg/mL (g/L) [2]: 8.47 mg/mL (g/L) | Water solubility mol/L [2]: 0.0131 (0) mol/L | Solubility in deionized water, single determination ([2]; room temperature, stirred 24 h (acyclovir overnight), individual replicate (1st, 2nd, 3rd)): 13.06 mM and 13.05 mM | Solubility in deionized water, average ([2]; room temperature, average of replicates, text of Examples): 13.06 mM

Nc1nc2c(ncn2COCCO)c(=O)[nH]1 [[N4,4,4,1][Acy] (2)] [tributylmethylammonium acyclovir]
T5%onset [1]: 115 °C

Nc1nc2c(ncn2COCCO)c(=O)[nH]1 [Acyclovir, reference compound]
T5%onset [1]: 240 °C | Water solubility, literature value [5]: 5.77 mM | Solubility in PBS (pH = 7.4) ([4]; determined using UV-Vis): 1.4^b mg ‘acyclovir’/mL | Solubility in PBS (pH = 7.4) [4, 6]: 1.5 mg ‘acyclovir’/mL | Solubility in SIF (pH = 6.8) [4, 7]: 2.22 mg ‘acyclovir’/mL | Water solubility [2]: 1.42 mg/mL | Water solubility mg/mL (g/L) [2]: 1.42 mg/mL (g/L) | Water solubility mol/L [2]: 0.0063 (0) mol/L | Oral bioavailability [3]: 10-20%

Nc1nc2c(ncn2COCCO)c(=O)[nH]1 [[P4,4,4,4][Acy] (4)] [tetrabutylphosphonium acyclovir]
T5% onset (onset for 5% decomposition from TGA) [1]: 221 °C | T5%onset [1]: 221 °C | Water solubility [2]: 803.89 mg/mL | Water solubility mg/mL (g/L) [2]: 803.89 mg/mL (g/L) | Water solubility mol/L [2]: 1.6622 (41) mol/L

acyclovir docusate [[H2Acy][Doc] (7)]
Stability of emulsion in water [2]: at least 48 h
